Key:
[1] = Antimigratory activity against human SW.71 cells at 10 uM after 18 hrs by crystal violet staining-based assay relative to control; assay type: functional; conditions: SW.71, 18 h
MDCK-II [2] = assay: Antimigratory activity against MDCK2 cells assessed as inhibition of HGF-induced cell scattering at 1 uM pretreated for 18 hrs followed by HGF addition measured after 20 to 24 hrs by crystal violet staining-based assay relative to control; assay type: functional; conditions: Canis lupus familiaris
MDCK-II [3] = assay: Antimigratory activity against MDCK2 cells assessed as inhibition of HGF-induced cell scattering pretreated for 18 hrs followed by HGF addition measured after 20 to 24 hrs by crystal violet staining-based assay; assay type: functional; conditions: Canis lupus familiaris
MDA-MB-468 = assay: Antiproliferative activity against human MDA-MB-468 cells at 10 uM relative to control; assay type: functional
MCF7 [4] = assay: Antiproliferative activity against human MCF7 cells at 10 uM relative to control; assay type: functional, cell-based
MFE-296 [5] = assay: Cell cycle arrest in human MFE296 cells assessed as accumulation at G1 phase at 300 nM (reference value: 61.05 to 64.87%); assay type: functional
A2780 [6] = assay: Cell cycle arrest in human A2780 cells assessed as accumulation at G2/M phase at 300 nM (reference value: 19.42 to 20.43%); assay type: functional
MCF7 [7] = assay: Cell cycle arrest in human MCF7 cells assessed as accumulation at S phase at 300 nM (reference value: 25.36 to 26.82%); assay type: functional
T47D [8] = assay: Cell cycle arrest in human T47D cells assessed as accumulation at G2/M phase at 300 nM (reference value: 20.58 to 28.8%); assay type: functional
T47D [9] = assay: Cell cycle arrest in human T47D cells assessed as accumulation at S phase at 300 nM (reference value: 19.89 to 24.55%); assay type: functional
A2780 [10] = assay: Cell cycle arrest in human A2780 cells assessed as accumulation at G1 phase at 300 nM (reference value: 55.26 to 55.66%); assay type: functional
PC-3 [11] = assay: Cell cycle arrest in human p53-null PC3 cells assessed as accumulation at G2/M phase at 300 nM (reference value: 18.37 to 18.96%); assay type: functional
A2780 [12] = assay: Cell cycle arrest in human A2780 cells assessed as accumulation at S phase at 300 nM (reference value: 21.16 to 22.81%); assay type: functional
PC-3 [13] = assay: Cell cycle arrest in human p53-null PC3 cells assessed as accumulation at S phase at 300 nM (reference value: 29.08 to 29.33%); assay type: functional
PC-3 [14] = assay: Cell cycle arrest in human p53-null PC3 cells assessed as accumulation at G1 phase at 300 nM (reference value: 50.77 to 51.16%); assay type: functional
MCF7 [15] = assay: Cell cycle arrest in human MCF7 cells assessed as accumulation at G2/M phase at 300 nM (reference value: 20.06 to 22.33%); assay type: functional
MFE-296 [16] = assay: Cell cycle arrest in human MFE296 cells assessed as accumulation at G2/M phase at 300 nM (reference value: 15.71 to 17.04%); assay type: functional
MCF7 [17] = assay: Cell cycle arrest in human MCF7 cells assessed as accumulation at G1 phase at 300 nM (reference value: 47.47 to 52.3%); assay type: functional
MFE-280 [18] = assay: Cell cycle arrest in human MFE280 cells assessed as accumulation at G1 phase at 300 nM (reference value: 64.99 to 67.86%); assay type: functional
MFE-296 [19] = assay: Cell cycle arrest in human MFE296 cells assessed as accumulation at S phase at 300 nM (reference value: 16.96 to 19.19%); assay type: functional
T47D [20] = assay: Cell cycle arrest in human T47D cells assessed as accumulation at G1 phase at 300 nM (reference value: 45.5 to 57.8%); assay type: functional
MFE-280 [21] = assay: Cell cycle arrest in human MFE280 cells assessed as accumulation at S phase at 300 nM (reference value: 14.14 to 15.66%); assay type: functional
MFE-280 [22] = assay: Cell cycle arrest in human MFE280 cells assessed as accumulation at G2/M phase at 300 nM (reference value: 16.43 to 17.9%); assay type: functional

Cc1nc(NC(=O)c2cncnc2)ccc1I gave an inhibition at 10 µM [1] of 80% and an inhibition at 1 µM (MDCK-II [2]) of 249%.

Cc1nc(NC(=O)c2cccc([N+](=O)[O-])c2)ccc1I gave an EC50 (MDCK-II [3]) of 3 µM, an inhibition at 10 µM (MDA-MB-468) of 73% and an inhibition at 10 µM (MCF7 [4]) of 84%. For the same compound, the inhibition at 1 µM (MDCK-II [2]) was 71 to 95.9%.

CC(=O)O[C@H]1C(=O)[C@@]2(C)[C@H]([C@H](OC(=O)c3ccccc3)[C@]3(O)C[C@H](OC(=O)[C@H](O)[C@@H](NC(=O)c4ccccc4)c4ccccc4)C(C)=C1C3(C)C)[C@]1(OC(C)=O)CO[C@@H]1C[C@@H]2O [PACLITAXEL] gave an Activity (MFE-296 [5]) of 26.72%, an Activity (A2780 [6]) of 70.7% and an Activity (MCF7 [7]) of 7.07%. The Activity (T47D [8]) was 41.49%, the Activity (T47D [9]) was 27.89% and the Activity (A2780 [10]) was 13.37%. The Activity (PC-3 [11]) was 70.82%, the Activity (A2780 [12]) was 10.42% and the Activity (PC-3 [13]) was 20.78%. It also gave an Activity (PC-3 [14]) of 8.25%, an Activity (MCF7 [15]) of 86.54% and an Activity (MFE-296 [16]) of 51.88%. For the same compound, the Activity (MCF7 [17]) was 3.43%, the Activity (MFE-280 [18]) was 34.74% and the Activity (MFE-296 [19]) was 19.73%. For the same compound, the Activity (T47D [20]) was 30.62%, the Activity (MFE-280 [21]) was 22.1% and the Activity (MFE-280 [22]) was 39.59%.

From ChEMBL document CHEMBL4043145, “Pyridine-pyrimidine amides that prevent HGF-induced epithelial scattering by two distinct mechanisms” (Bioorg Med Chem Lett, 2017)
